Reference: patent publication US9782424B2, “Synergistic combination comprising avermectins and a NSAID for tumor inhibition” (Ectin Research AB, priority 2011, dated 2017)

Assays:
[1] = system: colorectal cell line (Colo205); assay: XTT-assay proliferation rate, colorectal cell line Colo205; format: cell-based, human; details: for Proliferation rate compared to medium control: Colo205 (Table 4); for Proliferation rate in per cent compared to untreated medium control: Colo205
Description: Commercially available human tumor cell lines were purchased from […], Borás, Sweden). Cell lines from urinary bladder (UM-UC-3, #CRL-1749), colorectal carcinoma (Colo205, #CCL-222 and HT29, #HTB-38), prostate carcinoma (LNCaP, #CRL-1740) and breast carcinoma (ZR-75-1, #CRL-1500) were purchased and stored in liquid nitrogen. […] Tumor cell lines were handled aseptically using a laminar airflow (LAF) bench (Holten 2448, Ninolab, Sweden) and stored in a liquid nitrogen tank and were initiated in culture as previously described (Falk P. Experimental models of the peritoneal environment: Effects of TGF-beta and Hyaluronan. Göteborg: University of Gothenburg; 2008). Briefly, ampoules of frozen cells were thawed by submerging into a 37° C. water bath for 45 s. […] Culture media was changed two-three times a week. Culture flasks (Cell+, Sarstedt, Nümbrecht, Germany) and culture plates (Falcon/BD, Franklin Lakes, N.J., USA) were used for experimental set-ups. […] Described culture techniques and equipment have been used extensively in the laboratory The proliferation rates of the different human tumor cell lines were studied using a method based on the conversion of a sodium salt (XTT-assay, Sigma) into a stable orange color that could be analyzed in a spectrophotometer. The color change is proportional to the mitochondrial dehydrogenase activity resulting in an effective technique for measuring cell toxicity (Roehm N W, Rodgers […], Glasebrook A L. An improved colorimetric assay for cell proliferation and viability utilizing the tetrazolium salt XTT. […] The color change was measured using a 96-well plate reader with software to calculate the absorbance at 450 nm (V-max/Softmax Pro, Molecular Devices, USA). […] RPMI 1640 and EMEM without phenol red was used during the experiments to reduce the red color background signal in the XTT-assay. […] Untreated wells including culture medium only served as untreated controls. The XTT-assay substrate was added and after gentle agitation using a micro plate shaker, absorbencies at 450 and 650 nm were measured. Levels from medium were subtracted and compared with control wells, using culture medium only.

[2] = system: colorectal cell line (HT29); assay: XTT-assay proliferation rate, colorectal cell line HT29; format: cell-based, human
Experimental: Commercially available human tumor cell lines were purchased from ATCC (ATCC/LGC-standards, Borás, Sweden). Cell lines from urinary bladder (UM-UC-3, #CRL-1749), colorectal carcinoma (Colo205, #CCL-222 and HT29, #HTB-38), prostate carcinoma (LNCaP, #CRL-1740) and breast carcinoma (ZR-75-1, #CRL-1500) were purchased and stored in liquid nitrogen. Cells were cultured in Roswell Park Memorial Institute media (RPMI-1640) or minimum essential medium with Earl's salts (EMEM) supplemented with 10% Foetal calf serum (FCS, Sigma) and cultured using a 37° C. cell culture incubator (Forma Scientific, NinoLab, Kungsbacka, Sweden) with 5% CO2 humidified atmosphere. Tumor cell lines were handled aseptically using a laminar airflow (LAF) bench (Holten 2448, Ninolab, Sweden) and stored in a liquid nitrogen tank and were initiated in culture as previously described (Falk P. Experimental models of the peritoneal environment: Effects of TGF-beta and Hyaluronan. Göteborg: University of Gothenburg; 2008). Briefly, ampoules of frozen cells were thawed by submerging into a 37° C. water bath for 45 s. Cells were resuspended in 10 ml of preheated RPMI-1640 with 10% FCS and centrifuged in 260 g for 10 min. With supernatant discarded, cell pellets were further resuspended with 5 ml complete medium into 25 cm^2 cell culture flasks (Cell+, Sarstedt, Nümbrecht, Germany). Tumor cells were cultured until sub-confluence and further sub-cultured with Trypsin (0.5%), EDTA (0.2%) solution (T4174, TE-10x, Sigma) in sterile sodium chloride. Culture media was changed two-three times a week. Culture flasks (Cell+, Sarstedt, Nümbrecht, Germany) and culture plates (Falcon/BD, Franklin Lakes, N.J., USA) were used for experimental set-ups. Cells were regularly monitored using an inverted microscope connected to a digital photo equipment (Axiovert 25 and Axiovision, Zeiss, Carl Zeiss AG, Germany) (FIG. 1). Described culture techniques and equipment have been used extensively in the laboratory
The proliferation rates of the different human tumor cell lines were studied using a method based on the conversion of a sodium salt (XTT-assay, Sigma) into a stable orange color that could be analyzed in a spectrophotometer. The color change is proportional to the mitochondrial dehydrogenase activity resulting in an effective technique for measuring cell toxicity (Roehm N W, Rodgers G H, Hatfield S M, Glasebrook A L. An improved colorimetric assay for cell proliferation and viability utilizing the tetrazolium salt XTT. J Immunol Methods 1991;142(2):257-65) or cell proliferation. The color change was measured using a 96-well plate reader with software to calculate the absorbance at 450 nm (V-max/Softmax Pro, Molecular Devices, USA). Cells were cultured until approx 50% confluence and then pre-incubated for 24 h with RPMI-1640 or EMEM containing 1% FCS only. RPMI 1640 and EMEM without phenol red was used during the experiments to reduce the red color background signal in the XTT-assay.
Prior to the experimental start all cells were gently washed once with RPMI 1640 and EMEM with 1% FCS. Increasing concentrations of substance ivermectin was added with an 8-channel pipette (Titertek, Kem-En-Tec, Taastrup, Denmark) together with sterile pipette tips (Molecular Bioproducts, San Diego, Calif., USA). Cell cultures including active substances were incubated for 24 hours (and 96 hours). Untreated wells including culture medium only served as untreated controls. The XTT-assay substrate was added and after gentle agitation using a micro plate shaker, absorbencies at 450 and 650 nm were measured. Levels from medium were subtracted and compared with control wells, using culture medium only.

22,23-dihydroavermectin B1a+22,23-dihydroavermectin B1b [ivermectin]
Proliferation rate compared to medium control ([1]; IVM 1 μmol/L alone): 101.3 ± 4.9%
Proliferation rate compared to medium control ([1]; IVM 10 μmol/L alone): 97.7 ± 8.5%
Proliferation rate compared to medium control ([1]; IVM 100 μmol/L alone): 69.4 ± 11.5%
Proliferation rate in per cent compared to untreated medium control ([1]; ivermectin 10e-9 mol/L): 97 ± 14%
Proliferation rate in per cent compared to untreated medium control ([1]; ivermectin 10e-8 mol/L): 104 ± 8%
Proliferation rate in per cent compared to untreated medium control ([1]; ivermectin 10e-7 mol/L): 69±9%
Proliferation rate in per cent compared to untreated medium control ([1]; ivermectin 10e-6 mol/L): 42±12%
Proliferation rate in per cent compared to untreated medium control ([1]; ivermectin 10e-5 mol/L): 6±1%
Proliferation rate in per cent compared to untreated medium control ([1]; ivermectin 10e-4 mol/L): 4±1%
Proliferation rate in per cent compared to untreated medium control ([2]; ivermectin 10e-9 mol/L): 109 ± 14%
Proliferation rate in per cent compared to untreated medium control ([2]; ivermectin 10e-8 mol/L): 112 ± 12%
Proliferation rate in per cent compared to untreated medium control ([2]; ivermectin 10e-7 mol/L): 106 ± 9%
Proliferation rate in per cent compared to untreated medium control ([2]; ivermectin 10e-6 mol/L): 91 ± 5%
Effect on proliferation rate ([2]; ivermectin 100 μM): decreased proliferation rate
Proliferation rate in per cent compared to untreated medium control ([2]; ivermectin 10e-5 mol/L): 85±11%
Proliferation rate in per cent compared to untreated medium control ([2]; ivermectin 10e-4 mol/L): 5±1%
